Measurements from patent US9243037B2, “Gramicidin a mutants that function as antibiotics with improved solubility and reduced toxicity” (Trustees of Boston College, priority 2011, dated 2016).
Marks after values point to notes of the source that are not given here.

Experiments:
[1] = tested on: human red blood cells (hRBCs); experiment: Haemoglobin release from human red blood cells; format: cell-based
Procedure: Fresh human red blood cells (hRBCs) were centrifuged at 3500 rpm and washed with PBS buffer until the supernatant was clear. The hRBCs were then resuspended and diluted to a final concentration of 1% (v/v) in PBS and used immediately. 15 μL of serial dilution (2-fold) of peptides in DMSO or DMSO alone as a negative control were added to 1.5 mL of hRBCs in PBS. The resulting mixture was gently shaken to mix well and incubated at 37° C. for 1 hr, followed by centrifugation at 3500 rpm for 10 min using tabletop centrifuge. Aliquots (50 μL) of the supernatant (in triplicates) were transferred into a sterile 96-well plate containing 50 μL of H2O in each well. Release of hemoglobin was monitored at 415 nm using a microtiter plate reader. Percentage hemolysis was calculated using percentage hemolysis=100·(A415, peptide-A415,DMSO)/(A415, complete hemolysis-A415, DMSO), where complete hemolysis is achieved by mixing hRBCs with 1% TritonX-100.

physchem = format: physicochemical
Procedure: Peptide solubility in 10 mM HEPES buffer with 1% DMSO was measured by monitoring tryptophan absorbance. A concentrated (6.0-8.0 mM) peptide stock solution in DMSO was diluted 100 times (5 μL of the stock into 500 jtl of 10 mM HEPES buffer, pH 7.0). The mixture was sonicated for 30 mins and then subject to centrifugation (14,000 rpm, 10 mins) to remove possible precipitate. The supernatant (400 μL) was transferred to a quartz cuvette and the peptide concentration was determined by tryptophan absorbance at 280 nm (ε=22760 M−1 cm-1). The UV/Vis spectra of the supernatant can be seen in FIG. 1 and FIG. 5.

[2] = tested on: Bacillus subtilis (ATCC 663)
[3] = tested on: Staphylococcus aureus (ATCC 6538)
[4] = tested on: Streptococcus pyogenes (ATCC 19615)
FIG. 2 = experiment: FIG. 2
Procedure: Table printed on a drawing sheet, FIG. 2
Water solubility of gA variants is determined by Trp absorbance at 280 nm and summarized in the inserted table. Buffer used: 10 mM HEPES containing 1% DMSO. The solubility of gA-WT was obtained from reference.
First reader's note: Saturation concentration (water solubility); the gA-WT cell carries its own unit (nM), and the marker [a] is not explained on the sheet.

bacteria = experiment: Antibacterial activity, strain not singled out; settings: in words
Procedure: Minimal Inhibitory Concentrations (MICs) were measured against Gram-negative Escherichia coli (BL21) and Gram-positive Bacillus subtilis (ATCC 663), Staphylococcus aureus (ATCC 6538), Streptococcus pyogenes (ATCC 19615) using the broth microdilution method.[2] Specifically, bacteria from a single colony were grown overnight in LB broth at 37° C. with agitation. An aliquot was taken and diluted (1:50 for E. coli, 1:20 for B. subtilis, 1:200 for S. aureus, 1: 10 for S. pyogenes) in fresh broth and cultured for another ˜3 hours until the cells reach mid-logarithmic phase (OD590-0.6). The cells were diluted to a concentration of ˜5×10^5 Colony Forming Units/ml (CFU/ml) and the bacteria suspension (200 μL) was added to each well of a sterile 96-well plate. Serial diluted (2-fold) peptides in DMSO (2 μL) were added in triplicates. The plates were shaken for 30 seconds to mix the peptide solution well with the broth, and then incubated at 37° C. overnight before the absorbance at 590 nm was monitored using a microtiter plate reader (SPECTRAMAX M5, Molecular Devices, Sunnyvale, Calif.). The viability of the bacteria was normalized as % survival=(ODpep,bac−ODbroth only)/(ODDMSO, bac-ODbroth only)×100%.

For `CC(C)C[C@@H](NC(=O)[C@H](C)NC(=O)CNC(=O)[C@@H](NC=O)C(C)C)C(=O)N[C@@H](C)C(=O)N[C@@H](C(=O)N[C@H](C(=O)N[C@@H](C(=O)N[C@@H](Cc1c[nH]c2ccccc12)C(=O)N[C@H](CCCNC(=N)N)C(=O)N[C@@H](Cc1c[nH]c2ccccc12)C(=O)N[C@H](CCCNC(=N)N)C(=O)N[C@@H](Cc1c[nH]c2ccccc12)C(=O)N[C@H](CCCNC(=N)N)C(=O)N[C@@H](Cc1c[nH]c2ccccc12)C(=O)NCCO)C(C)C)C(C)C)C(C)C` (racemic) [gA-6, formyl-V-G-A-dL-A-dV-V-dV-W-dR-W-dR-W-dR-W-NHCH2CH2OH], the “HC50 (50% haemoglobin leakage relative to 1% TritonX-100)” value [1] was 20 µM, the “water solubility, fold higher than wild-type Gramicidin A” value (physchem) was about 800 fold and the “MICs B. Subtilius” value ([2]; ATCC 663) was 2.5~5 μM. The “MIC relative to wild-type Gramicidin A” value ([2]; B. subtilis) was “equivalent to or ˜2-fold higher”, the “MIC relative to wild-type Gramicidin A” value ([3]; S. Aureus) was “much higher MIC” and the “MICs S. Aureus” value ([3]; Table 2, standard micro-dilution) was >10 ^[e] μM. The “MICs S. Pyogenes” value ([4]; ATCC 19615) was 1.25 µM, the “MIC relative to wild-type Gramicidin A” value ([4]; S. Pyogenes) was “equivalent to or ˜2-fold higher” and the “SAT. CONC/μM” value (FIG. 2) was 43 µM. For the same molecule, the “antibacterial activity / MIC” value (bacteria) was “low μM potency”.
